Test results published in PMC6174881 (Journal of medicinal chemistry, 2018).
Values joined by “and” are separate entries in the source; they are usually repeats but may differ in a detail not shown here. Equal values may be shown once. Read-outs that look alike come from different tables or passages of the source. Square brackets hold non-standard residues; d marks the D form. Peptide text beside a SMILES is read from it. hPhe = N[C@@H](CCc1ccccc1)C(=O)O; Nle = CCCC[C@H](N)C(=O)O; Dap = NC[C@H](N)C(=O)O

Assays:
mMC3R [1] = target: T1, mMC3R (Mus musculus, UniProt P33033); details: for Antagonist mMC3R pA2: Schild analysis with agonist NDP-MSH, pA2 = −log[Ki]
mMC4R [2] = target: T2, mMC4R (Mus musculus, UniProt P56450); details: for fold increase in potency at the mMC4R compared to 1: calculated using Ki values from Schild analysis
mMC1R [3] = target: T3, mMC1R (Mus musculus, UniProt Q01727); assay: cell-based
mMC1R [4] = target: T3, mMC1R; details: for mMC1R agonist activity in words: up to 100 μM
mMC5R = mMC5R (Mus musculus, UniProt P41149); assay: AlphaScreen cAMP assay, agonist/inverse agonist activity at mMC5R; details: for mMC5R inverse agonist efficacy (−X%): relative to basal, apparent sigmoidal dose-response; for mMC5R activity in words: up to 100 μM
mMC3R [5] = target: T1, mMC3R
mMC4R [6] = target: T2, mMC4R; details: cited from earlier work
mMC3R [7] = target: T1, mMC3R; details: cited from earlier work
mMC4R [8] = target: T2, mMC4R
MC1R = details: read-out: MC1R agonist EC50; cited from earlier work
[9] = target: mouse melanocortin-1 receptor (mouse) (UniProt Q01727)
[10] = maximal stimulation relative to NDP-MSH, sigmoidal dose-response
[11] = calculated using Ki values from Schild analysis
[12] = calculated using antagonist Ki values
[13] = β-galactosidase reporter gene assay

T3 sequence (Q01727 whole entry): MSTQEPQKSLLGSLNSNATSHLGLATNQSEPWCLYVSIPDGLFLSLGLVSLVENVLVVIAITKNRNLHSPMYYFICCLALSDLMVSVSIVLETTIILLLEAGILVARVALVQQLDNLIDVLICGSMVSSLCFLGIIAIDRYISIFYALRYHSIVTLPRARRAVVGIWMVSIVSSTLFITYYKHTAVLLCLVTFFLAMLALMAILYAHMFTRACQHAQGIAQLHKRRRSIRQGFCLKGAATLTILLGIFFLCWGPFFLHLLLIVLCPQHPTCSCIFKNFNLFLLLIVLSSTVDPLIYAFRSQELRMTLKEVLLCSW
T1 sequence (P33033 whole entry): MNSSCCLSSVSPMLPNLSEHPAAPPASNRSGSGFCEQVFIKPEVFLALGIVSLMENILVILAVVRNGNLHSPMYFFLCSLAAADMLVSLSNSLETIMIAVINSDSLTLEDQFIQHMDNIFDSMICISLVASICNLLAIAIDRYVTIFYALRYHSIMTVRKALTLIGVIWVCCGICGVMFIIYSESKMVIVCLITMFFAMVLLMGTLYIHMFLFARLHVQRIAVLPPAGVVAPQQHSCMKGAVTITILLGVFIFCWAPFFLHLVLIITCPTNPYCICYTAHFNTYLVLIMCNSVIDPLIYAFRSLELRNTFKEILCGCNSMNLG
T2 sequence (P56450 whole entry): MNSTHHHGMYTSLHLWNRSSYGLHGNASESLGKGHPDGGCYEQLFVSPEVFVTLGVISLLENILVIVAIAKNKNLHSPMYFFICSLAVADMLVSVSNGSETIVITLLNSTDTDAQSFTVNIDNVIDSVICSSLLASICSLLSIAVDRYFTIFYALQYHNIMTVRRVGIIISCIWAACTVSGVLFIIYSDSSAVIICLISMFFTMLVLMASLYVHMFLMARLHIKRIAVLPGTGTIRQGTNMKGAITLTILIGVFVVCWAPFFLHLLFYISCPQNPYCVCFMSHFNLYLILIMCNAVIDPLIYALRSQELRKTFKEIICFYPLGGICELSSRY
Sequence of mMC5R (P41149 whole entry): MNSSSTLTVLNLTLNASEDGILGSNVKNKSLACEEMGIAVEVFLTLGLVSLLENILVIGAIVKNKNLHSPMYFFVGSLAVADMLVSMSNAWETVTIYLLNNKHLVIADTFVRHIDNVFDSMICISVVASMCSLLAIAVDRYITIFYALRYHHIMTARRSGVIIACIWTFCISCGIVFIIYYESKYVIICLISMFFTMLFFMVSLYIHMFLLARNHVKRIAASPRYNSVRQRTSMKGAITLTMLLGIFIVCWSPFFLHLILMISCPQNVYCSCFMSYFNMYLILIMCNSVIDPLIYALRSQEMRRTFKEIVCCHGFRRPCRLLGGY
Sequence of mouse melanocortin-1 receptor (mouse) (Q01727 whole entry): as the sequence (Q01727 whole entry) above

Compound: CCCC[C@@H]1NC(=O)[C@H](C)NC(=O)[C@H](CC(N)=O)NC(=O)[C@H](Cc2ccccc2)NC(=O)[C@H](Cc2ccccc2)NC(=O)[C@H](CCCNC(=N)N)NC(=O)[C@@H]2CCCN2C(=O)[C@H]2CCCN2C1=O [Compound 2, c[Pro-Arg-Phe-Phe-Asn-Ala-Nle-DPro]]
- Kb (mMC3R [1]): 251 nM
- Kb (mMC4R [2]): 1.26 nM
- fold increase in potency at the mMC4R compared to 1 (mMC4R [2]): ≤ 10 fold
- EC50 (mMC1R [3]): 1700 ± 300 nM
- mMC1R partial agonist activity (X%), receptor stimulated to given percent (mMC1R [4]; [10]): 50%
- EC50 (mMC5R): 10 ± 6 nM
- mMC5R inverse agonist efficacy (−X%) (mMC5R): −20%
- mMC5R activity in words (mMC5R): inverse agonist activity was observed

Compound: N=C(N)NCCC[C@@H]1NC(=O)[C@@H]2CCCN2C(=O)[C@H]2CCCN2C(=O)[C@H](Cc2ccccc2)NC(=O)[C@H](CO)NC(=O)[C@H](CC(N)=O)NC(=O)[C@H](Cc2ccccc2)NC(=O)[C@H](Cc2ccccc2)NC1=O [Compound 3, c[Pro-Arg-Phe-Phe-Asn-Ser-Phe-DPro]] (cyclo(RFFNSF[dP]P))
- Kb (mMC3R [1]): 794 nM
- Kb (mMC4R [2]): 7.94 nM
- fold increase in potency at the mMC4R compared to 1 (mMC4R [2]): ≤ 10 fold
- EC50 (mMC1R [3]): 1200 ± 300 nM
- EC50 (mMC5R): 6 ± 3 nM
- mMC5R inverse agonist efficacy (−X%) (mMC5R): −14%
- mMC5R activity in words (mMC5R): inverse agonist activity was observed

Compound: CCCC[C@@H]1NC(=O)[C@H](CO)NC(=O)[C@H](CC(N)=O)NC(=O)[C@H](Cc2ccccc2)NC(=O)[C@H](Cc2ccccc2)NC(=O)[C@H](CCCNC(=N)N)NC(=O)[C@@H]2CCCN2C(=O)[C@H]2CCCN2C1=O [Compound 4, c[Pro-Arg-Phe-Phe-Asn-Ser-Nle-DPro]] (cyclo(RFFNS[Nle][dP]P))
- fold increase in potency at the mMC4R compared to 1 (mMC4R [2]): ≤ 10 fold
- mMC5R inverse agonist efficacy −X% @ 100 μM (mMC5R; at 100 μM relative to basal, no sigmoidal dose-response): −35% @ 100μM
- mMC5R activity in words (mMC5R): inverse agonist activity was observed

Compound: C[C@@H]1NC(=O)[C@H](CN)NC(=O)[C@H](Cc2ccccc2)NC(=O)[C@H](Cc2ccccc2)NC(=O)[C@H](CCCNC(=N)N)NC(=O)[C@@H]2CCCN2C(=O)[C@H]2CCCN2C(=O)[C@H](Cc2ccccc2)NC1=O [Compound 5, c[Pro-Arg-Phe-Phe-Dap-Ala-Phe-DPro]]
- Kb (mMC3R [1]): 63.1 nM
- EC50 (mMC1R [3]): 1600 ± 400 nM
- mMC1R partial agonist activity (X%), receptor stimulated to given percent (mMC1R [4]; [10]): 80%
- EC50 (mMC5R): > 100000 nM

Compound: CCCC[C@@H]1NC(=O)[C@H](CO)NC(=O)[C@H](CN)NC(=O)[C@H](Cc2ccccc2)NC(=O)[C@H](Cc2ccccc2)NC(=O)[C@H](CCCNC(=N)N)NC(=O)[C@@H]2CCCN2C(=O)[C@H]2CCCN2C1=O [Compound 8, c[Pro-Arg-Phe-Phe-Dap-Ser-Nle-DPro]] (cyclo(RFF[Dap]S[Nle][dP]P))
- fold increase in potency at the mMC4R compared to 1 (mMC4R [2]): ≥ 10 fold

Compound: C[C@@H]1NC(=O)[C@H](CCCNC(=N)N)NC(=O)[C@H](Cc2ccccc2)NC(=O)[C@H](Cc2ccccc2)NC(=O)[C@H](CCCNC(=N)N)NC(=O)[C@@H]2CCCN2C(=O)[C@H]2CCCN2C(=O)[C@H](Cc2ccccc2)NC1=O [Compound 9, c[Pro-Arg-Phe-Phe-Arg-Ala-Phe-DPro]] (cyclo(RFFRAF[dP]P))
- Kb (mMC3R [1]): 39.8 nM
- fold increase in potency at the mMC3R compared to 1 (mMC3R [1]; [11]): greater than 10 fold
- Kb (mMC4R [2]): 2 nM
- EC50 (mMC1R [3]): 600 ± 200 nM
- mMC1R partial agonist activity (X%), receptor stimulated to given percent (mMC1R [4]): 25%
- EC50 (mMC5R): > 100000 nM

Compound: CCCC[C@@H]1NC(=O)[C@H](C)NC(=O)[C@H](CCCNC(=N)N)NC(=O)[C@H](Cc2ccccc2)NC(=O)[C@H](Cc2ccccc2)NC(=O)[C@H](CCCNC(=N)N)NC(=O)[C@@H]2CCCN2C(=O)[C@H]2CCCN2C1=O [Compound 10, c[Pro-Arg-Phe-Phe-Arg-Ala-Nle-DPro]] (cyclo(RFFRA[Nle][dP]P))
- fold increase in potency at the mMC3R compared to 1 (mMC3R [1]; [11]): greater than 10 fold
- fold increase in potency at the mMC4R compared to 1 (mMC4R [2]): ≥ 10 fold

Compound: CCCC[C@@H]1NC(=O)[C@H](CO)NC(=O)[C@H](CCCNC(=N)N)NC(=O)[C@H](Cc2ccccc2)NC(=O)[C@H](Cc2ccccc2)NC(=O)[C@H](CCCNC(=N)N)NC(=O)[C@@H]2CCCN2C(=O)[C@H]2CCCN2C1=O [Compound 12, c[Pro-Arg-Phe-Phe-Arg-Ser-Nle-DPro]] (cyclo(RFFRS[Nle][dP]P))
- fold increase in potency at the mMC4R compared to 1 (mMC4R [2]): ≥ 10 fold

Compound: C[C@@H]1NC(=O)[C@H](CC(N)=O)NC(=O)[C@H](CCc2ccccc2)NC(=O)[C@H](Cc2ccccc2)NC(=O)[C@H](CCCNC(=N)N)NC(=O)[C@@H]2CCCN2C(=O)[C@H]2CCCN2C(=O)[C@H](Cc2ccccc2)NC1=O [Compound 13, c[Pro-Arg-Phe-hPhe-Asn-Ala-Phe-DPro]]
- Kb (mMC3R [1]): 2510 nM
- Antagonist mMC3R pA2 (mMC3R [1]): 5.6
- fold reduced potency at the mMC3R compared to 1 (mMC3R [1]; [11]): 5 fold
- Kb (mMC4R [2]): 5.01 nM
- mMC4R potency compared to lead peptide 1 in words (mMC4R [2]): equipotent to the lead peptide
- selectivity for the mMC4R over the mMC3R (mMC4R [2]; [12]): approximately 500 fold
- Antagonist mMC3R pA2 (mMC3R [5]): 5.6±0.2
- EC50 (mMC5R): > 100000 nM
- fold less potent than 1 at the mMC4R (mMC4R [6]; [13]): 5 fold
- mMC3R antagonist activity in words (mMC3R [7]; [13]): did not possess antagonist activity

Compound: CCCC[C@@H]1NC(=O)[C@H](C)NC(=O)[C@H](CC(N)=O)NC(=O)[C@H](CCc2ccccc2)NC(=O)[C@H](Cc2ccccc2)NC(=O)[C@H](CCCNC(=N)N)NC(=O)[C@@H]2CCCN2C(=O)[C@H]2CCCN2C1=O [Compound 14, c[Pro-Arg-Phe-hPhe-Asn-Ala-Nle-DPro]]
- mMC1R agonist activity in words (mMC1R [4]): did not possess agonist activity

Compound: CCCC[C@@H]1NC(=O)[C@H](CO)NC(=O)[C@H](CC(N)=O)NC(=O)[C@H](CCc2ccccc2)NC(=O)[C@H](Cc2ccccc2)NC(=O)[C@H](CCCNC(=N)N)NC(=O)[C@@H]2CCCN2C(=O)[C@H]2CCCN2C1=O [Compound 16, c[Pro-Arg-Phe-hPhe-Asn-Ser-Nle-DPro]] (cyclo(RF[hPhe]NS[Nle][dP]P))
- Antagonist mMC3R pA2 (mMC3R [1]): 6.33
- fold more potent than AGRP at the mMC4R (mMC4R [2]): 3–6 fold
- Antagonist mMC4R pA2 (mMC4R [2]; Schild analysis with agonist NDP-MSH, pA2 = −log[Ki]): 9.23
- selectivity for the mMC4R over the mMC3R (mMC4R [2]; [12]): 600–800 fold and 800 fold
- mMC5R activity in words (mMC5R): did not result in mMC5R stimulation

Compound: CCCC[C@@H]1NC(=O)[C@H](C)NC(=O)[C@H](CN)NC(=O)[C@H](CCc2ccccc2)NC(=O)[C@H](Cc2ccccc2)NC(=O)[C@H](CCCNC(=N)N)NC(=O)[C@@H]2CCCN2C(=O)[C@H]2CCCN2C1=O [Compound 18, c[Pro-Arg-Phe-hPhe-Dap-Ala-Nle-DPro]] (cyclo(RF[hPhe][Dap]A[Nle][dP]P))
- mMC1R agonist activity in words (mMC1R [4]): did not possess agonist activity

Compound: CCCC[C@@H]1NC(=O)[C@H](CO)NC(=O)[C@H](CN)NC(=O)[C@H](CCc2ccccc2)NC(=O)[C@H](Cc2ccccc2)NC(=O)[C@H](CCCNC(=N)N)NC(=O)[C@@H]2CCCN2C(=O)[C@H]2CCCN2C1=O [Compound 20, c[Pro-Arg-Phe-hPhe-Dap-Ser-Nle-DPro]] (cyclo(RF[hPhe][Dap]S[Nle][dP]P))
- fold more potent than AGRP at the mMC4R (mMC4R [2]): 3–6 fold
- fold increase in potency at the mMC4R compared to 1 (mMC4R [2]): 25 fold
- selectivity for the mMC4R over the mMC3R (mMC4R [2]; [12]): 600–800 fold and 600 fold
- mMC5R activity in words (mMC5R): did not result in mMC5R stimulation

Compound: C[C@@H]1NC(=O)[C@H](CCCNC(=N)N)NC(=O)[C@H](CCc2ccccc2)NC(=O)[C@H](Cc2ccccc2)NC(=O)[C@H](CCCNC(=N)N)NC(=O)[C@@H]2CCCN2C(=O)[C@H]2CCCN2C(=O)[C@H](Cc2ccccc2)NC1=O [Compound 21, c[Pro-Arg-Phe-hPhe-Arg-Ala-Phe-DPro]] (cyclo(RF[hPhe]RAF[dP]P))
- fold less potent than AGRP at the mMC3R (mMC3R [1]): 5 fold
- mMC4R potency compared to AGRP in words (mMC4R [2]): equipotent to AGRP
- fold increase in potency at the mMC4R compared to 1 (mMC4R [2]): 6 fold
- fold decrease in mMC4R selectivity compared to 1 (mMC4R [2]; [12]): 7 fold
- mMC5R activity in words (mMC5R): did not result in mMC5R stimulation
- Antagonist mMC4R pA2 (mMC4R [8]): 8.9

Compound: CCCC[C@@H]1NC(=O)[C@H](C)NC(=O)[C@H](CCCNC(=N)N)NC(=O)[C@H](CCc2ccccc2)NC(=O)[C@H](Cc2ccccc2)NC(=O)[C@H](CCCNC(=N)N)NC(=O)[C@@H]2CCCN2C(=O)[C@H]2CCCN2C1=O [Compound 22, c[Pro-Arg-Phe-hPhe-Arg-Ala-Nle-DPro]] (cyclo(RF[hPhe]RA[Nle][dP]P))
- fold increase in potency at the mMC3R compared to 1 (mMC3R [1]; [11]): greater than 10 fold
- mMC1R agonist activity in words (mMC1R [4]): did not possess agonist activity

Compound: N=C(N)NCCC[C@@H]1NC(=O)[C@H](CCc2ccccc2)NC(=O)[C@H](Cc2ccccc2)NC(=O)[C@H](CCCNC(=N)N)NC(=O)[C@@H]2CCCN2C(=O)[C@H]2CCCN2C(=O)[C@H](Cc2ccccc2)NC(=O)[C@H](CO)NC1=O [Compound 23, c[Pro-Arg-Phe-hPhe-Arg-Ser-Phe-DPro]] (cyclo(RF[hPhe]RSF[dP]P))
- fold increase in potency at the mMC3R compared to 1 (mMC3R [1]; [11]): greater than 10 fold

Compound: CCCC[C@@H]1NC(=O)[C@H](CO)NC(=O)[C@H](CCCNC(=N)N)NC(=O)[C@H](CCc2ccccc2)NC(=O)[C@H](Cc2ccccc2)NC(=O)[C@H](CCCNC(=N)N)NC(=O)[C@@H]2CCCN2C(=O)[C@H]2CCCN2C1=O [Compound 24, c[Pro-Arg-Phe-hPhe-Arg-Ser-Nle-DPro]] (cyclo(RF[hPhe]RS[Nle][dP]P))
- fold increase in potency at the mMC3R compared to 1 (mMC3R [1]; [11]): greater than 10 fold
- mMC1R partial agonist activity (X%), receptor stimulated to given percent (mMC1R [4]): 25%

Compound: Tyr-c[Cys-Arg-Phe-Phe-Asn-Ala-Phe-Cys]-Tyr [hAGRP(109–118), reference compound]
- EC50 (MC1R): 3000 nM
- Antagonist mMC4R pA2 (mMC4R [6]; β-galactosidase reporter gene bioassay): 6.8±0.4
- mMC3R activity in words (mMC3R [7]; β-galactosidase reporter gene bioassay, up to 10 μM): No activity (Agonist or Antagonist)

Compound: cyclo(PRF[hPhe]RS[Nle][dP])
- agonist EC50, cAMP (AlphaScreen), HEK293 cells stably expressing mMC1R [9]: 400 nM
